Data published in paper PMC10281575, “PfCRT mutations conferring piperaquine resistance in falciparum malaria shape the kinetics of quinoline drug binding and transport” (PLOS Pathogens, 2023).
Values joined by “and” are separate entries in the source; they are usually repeats but may differ in a detail not shown here. Equal entries are not always repeated.

Target: T1, PfCRT^Dd2_F145I (Plasmodium falciparum, UniProt Q8IBZ9, A220S/F145I/I356T/K76T/M74I/N326S/N75E/Q271E/R371I)
T1 construct: expressed in transfected cells; host or cells: Xenopus laevis oocytes injected with in vitro transcribed RNA (pSP64T)
T1 sequence (Q8IBZ9 1-424 M74I/N75E/K76T/F145I/A220S/Q271E/N326S/I356T/R371I): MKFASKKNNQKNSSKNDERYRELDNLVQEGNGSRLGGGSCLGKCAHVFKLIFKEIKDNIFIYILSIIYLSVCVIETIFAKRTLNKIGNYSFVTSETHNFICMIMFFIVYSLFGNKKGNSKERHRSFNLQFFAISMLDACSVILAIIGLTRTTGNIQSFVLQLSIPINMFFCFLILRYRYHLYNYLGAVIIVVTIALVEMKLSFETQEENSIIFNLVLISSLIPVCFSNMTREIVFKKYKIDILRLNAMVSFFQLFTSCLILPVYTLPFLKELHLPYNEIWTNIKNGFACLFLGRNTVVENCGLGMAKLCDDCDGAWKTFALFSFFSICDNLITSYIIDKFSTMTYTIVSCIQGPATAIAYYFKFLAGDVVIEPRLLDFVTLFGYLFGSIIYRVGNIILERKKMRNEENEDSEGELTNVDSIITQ
Experiment: Radiolabeled drug uptake in X. laevis oocytes expressing PfCRT^Dd2_F145I
Assay type: cell-based
Text: The two kinetic parameters were derived by fitting the Michaelis-Menten equation to the kinetic data (Table 1).
A codon-optimized coding sequence of the Dd2 isoform of PfCRT (PfCRT^Dd2) was subcloned into the pSP64T expression vector [21]. To generate the necessary mutations to introduce the amino acid substitutions H97Y, F145I, M343L or G353V into the pfcrt sequence, the overlap extension method was used. A region from the 5’-untranslated Xenopus β-globin sequence to the respective 3’ region, containing the full length pfcrt coding sequence, was amplified using the following primer pairs: for the H97Y mutation, numbers 1/4 and 2/3; for the F145I mutation, numbers 1/6 and 2/5; for the M343L mutation, numbers 1/8 and 2/7; and for the G353V mutation, numbers 1/10 and 2/9 (for primers, see S2 Table). Both PCR products were used as template for amplification of the final product using primers number 1/2. The resulting fragment was cloned into the pSP64T expression vector, and the presence of the desired mutation was confirmed by sequencing.
Adult female X. laevis frogs (purchased from NASCO) were anesthetized by submersion in a solution of 0.3% (w/v) 3-amino benzoate methanesulfonate for 15 min. Sections of the ovary were surgically removed and placed in Ca^2+-free ND96 buffer supplemented with 0.1% collagenase D (w/v; Roche), 0.5% BSA (w/v) and 9 mM Na2HPO4 at 18°C for 14–16 h while gently shaking. The oocytes were then washed several times with ND96 buffer (5 mM HEPES, pH 7.5, 96 mM NaCl, 2 mM KCl, 1.8 mM CaCl2, 1 mM MgCl2), supplemented with […] gentamycin. Healthy-looking stage V-VI oocytes were manually selected and randomly grouped for injection. A codon-optimized coding sequence of PfCRT was subcloned into the pSP64T expression vector and subsequently linearized using the restriction endonuclease BamHI or SalI (New England Biolabs GmbH). RNA for injection was transcribed in vitro using the mMESSAGE mMACHINE SP6 Transcription kit (Ambion), diluted with nuclease-free water to a final concentration of 0.6 μg/μL and stored at -80°C. RNA was injected using precision-bore glass capillary tubes (3.5-inch glass capillaries; Drummond Scientific Co.), which were pulled on a vertical puller (P-87 Flaming/Brown micropipette puller, Sutter Instrument Co.) and graduated. The micropipettes were connected to a microinjector (Nanoject II Auto-Nanoliter Injector, Drummond Scientific Co.). Injection was conducted under stereomicroscopic control. 50 nL of nuclease-free water alone (control oocytes) or 50 nL of nuclease-free water containing 30 ng of RNA was injected per oocyte. Injected oocytes were kept for 72 h at 18°C in ND96 buffer with two daily buffer changes before being used for further experiments.
Drug transport assays were performed as previously described. Briefly, measurements of radiolabeled drug uptake were made over 1 h, unless otherwise specified. […] Where specified, one or more unlabeled drugs were also present at the indicated concentrations. […] The uptake assays were terminated by removing the oocytes from the reaction medium and washing them three times with 2 mL of ice-cold ND96 buffer. Each oocyte was transferred to a separate scintillation vial and lysed by the addition of 200 μL of a 5% SDS solution. The radioactivity in the sample was measured using a liquid scintillation analyser Tri-Carb 4910 TR (PerkinElmer). Water-injected oocytes were analyzed in parallel as a negative control. The buffer from each condition was measured in duplicate in parallel to each experiment to transform counts per minute into pmol of drug. Drug uptake attributable to PfCRT was determined by subtracting the background uptake from water-injected oocytes from that of PfCRT-expressing oocytes.

[1] = 50 μM PPQ, pH 6.0, total uptake, one value per biological replicate
[2] = 50 μM PPQ, pH 6.0, water-injected uptake subtracted, per replicate
[3] = 60 min, pH 6, per biological replicate

Clc1ccc2c(N3CCN(CCCN4CCN(c5ccnc6cc(Cl)ccc56)CC4)CC3)ccnc2c1 [PPQ, piperaquine]
PfCRTDd2_F145I-mediated PPQ uptake at 10 µM PPQ (10 µM PPQ, single replicates): 11.21 pmol oocyte-1 h-1 and 11.88 pmol oocyte-1 h-1 and 9.04 pmol oocyte-1 h-1
PfCRTDd2_F145I PPQ uptake at 10 min [1]: 41.61 pmol oocyte-1 and 17.68 pmol oocyte-1 and 66.82 pmol oocyte-1 and 63.70 pmol oocyte-1 and 39.93 pmol oocyte-1
PfCRTDd2_F145I PPQ uptake at 30 min [1]: 65.21 pmol oocyte-1 and 116.16 pmol oocyte-1 and 126.02 pmol oocyte-1
PfCRTDd2_F145I PPQ uptake at 60 min [1]: 236.23 pmol oocyte-1 and 329.69 pmol oocyte-1 and 256.17 pmol oocyte-1 and 126.53 pmol oocyte-1 and 203.02 pmol oocyte-1 and 85.96 pmol oocyte-1 and 54.49 pmol oocyte-1 and 109.72 pmol oocyte-1 and 205.44 pmol oocyte-1 and 121.75 pmol oocyte-1 and 41.63 pmol oocyte-1
PfCRTDd2_F145I PPQ uptake at 90 min [1]: 231.09 pmol oocyte-1 and 187.07 pmol oocyte-1 and 164.98 pmol oocyte-1 and 158.85 pmol oocyte-1
PfCRTDd2_F145I PPQ uptake at 120 min [1]: 355.30 pmol oocyte-1 and 204.11 pmol oocyte-1 and 281.88 pmol oocyte-1 and 284.17 pmol oocyte-1 and 64.48 pmol oocyte-1 and 488.71 pmol oocyte-1
PfCRTDd2_F145I PPQ uptake at 180 min [1]: 182.19 pmol oocyte-1 and 278.77 pmol oocyte-1 and 329.69 pmol oocyte-1 and 378.75 pmol oocyte-1
PfCRTDd2_F145I-mediated PPQ uptake at 10 min [2]: 21.57 pmol oocyte-1 and 6.53 pmol oocyte-1 and 19.62 pmol oocyte-1 and 21.70 pmol oocyte-1 and 15.89 pmol oocyte-1
PfCRTDd2_F145I-mediated PPQ uptake at 30 min [2]: 25.28 pmol oocyte-1 and 34.52 pmol oocyte-1 and 15.41 pmol oocyte-1
PfCRTDd2_F145I-mediated PPQ uptake at 60 min [2]: 39.58 pmol oocyte-1 and 153.01 pmol oocyte-1 and 36.72 pmol oocyte-1 and 18.65 pmol oocyte-1 and 19.44 pmol oocyte-1 and 16.68 pmol oocyte-1 and 27.82 pmol oocyte-1 and 75.44 pmol oocyte-1 and 27.59 pmol oocyte-1 and 15.54 pmol oocyte-1 and 75.68 pmol oocyte-1
PfCRTDd2_F145I-mediated PPQ uptake at 90 min [2]: 89.48 pmol oocyte-1 and 78.18 pmol oocyte-1 and 49.49 pmol oocyte-1 and 48.14 pmol oocyte-1
PfCRTDd2_F145I-mediated PPQ uptake at 120 min [2]: 115.65 pmol oocyte-1 and 103.98 pmol oocyte-1 and 53.31 pmol oocyte-1 and 32.06 pmol oocyte-1 and 52.11 pmol oocyte-1 and 114.20 pmol oocyte-1
PfCRTDd2_F145I-mediated PPQ uptake at 180 min [2]: 46.86 pmol oocyte-1 and 115.74 pmol oocyte-1 and 109.59 pmol oocyte-1 and 113.43 pmol oocyte-1
PfCRTDd2_F145I-mediated PPQ uptake at 50 µM PPQ (50 µM PPQ, single replicates): 27.82 pmol oocyte-1 h-1 and 75.44 pmol oocyte-1 h-1 and 27.59 pmol oocyte-1 h-1 and 75.68 pmol oocyte-1 h-1 and 39.58 pmol oocyte-1 h-1 and 36.72 pmol oocyte-1 h-1 and 42.92 pmol oocyte-1 h-1
PfCRTDd2_F145I-mediated PPQ uptake at 100 µM PPQ (100 µM PPQ, single replicates): 60.49 pmol oocyte-1 h-1 and 74.22 pmol oocyte-1 h-1 and 87.33 pmol oocyte-1 h-1 and 56.31 pmol oocyte-1 h-1
PfCRTDd2_F145I-mediated PPQ uptake at 200 µM PPQ (200 µM PPQ, single replicates): 98.82 pmol oocyte-1 h-1 and 131.61 pmol oocyte-1 h-1 and 62.02 pmol oocyte-1 h-1 and 88.46 pmol oocyte-1 h-1
PfCRTDd2_F145I-mediated PPQ uptake at 300 µM PPQ (300 µM PPQ, single replicates): 115.45 pmol oocyte-1 h-1 and 117.23 pmol oocyte-1 h-1 and 91.14 pmol oocyte-1 h-1
PfCRTDd2_F145I-mediated PPQ uptake at 400 µM PPQ (400 µM PPQ, single replicates): 130.32 pmol oocyte-1 h-1 and 101.99 pmol oocyte-1 h-1 and 105.11 pmol oocyte-1 h-1
PfCRTDd2_F145I-mediated PPQ uptake at 500 µM PPQ (500 µM PPQ, single replicates): 124.15 pmol oocyte-1 h-1 and 149.83 pmol oocyte-1 h-1 and 96.18 pmol oocyte-1 h-1
PfCRTDd2_F145I-mediated PPQ uptake at 10 µM PPQ [3]: 11.21 pmol oocyte-1 h-1 and 11.88 pmol oocyte-1 h-1 and 9.04 pmol oocyte-1 h-1
PfCRTDd2_F145I-mediated PPQ uptake at 50 µM PPQ [3]: 39.58 pmol oocyte-1 h-1 and 36.72 pmol oocyte-1 h-1 and 42.92 pmol oocyte-1 h-1 and 27.82 pmol oocyte-1 h-1 and 75.44 pmol oocyte-1 h-1 and 27.59 pmol oocyte-1 h-1 and 75.68 pmol oocyte-1 h-1
PfCRTDd2_F145I-mediated PPQ uptake at 100 µM PPQ [3]: 60.49 pmol oocyte-1 h-1 and 74.22 pmol oocyte-1 h-1 and 87.33 pmol oocyte-1 h-1 and 56.31 pmol oocyte-1 h-1
PfCRTDd2_F145I-mediated PPQ uptake at 200 µM PPQ [3]: 98.82 pmol oocyte-1 h-1 and 131.61 pmol oocyte-1 h-1 and 62.02 pmol oocyte-1 h-1 and 88.46 pmol oocyte-1 h-1
PfCRTDd2_F145I-mediated PPQ uptake at 300 µM PPQ [3]: 115.45 pmol oocyte-1 h-1 and 117.23 pmol oocyte-1 h-1 and 91.14 pmol oocyte-1 h-1
PfCRTDd2_F145I-mediated PPQ uptake at 400 µM PPQ [3]: 130.32 pmol oocyte-1 h-1 and 101.99 pmol oocyte-1 h-1 and 105.11 pmol oocyte-1 h-1
PfCRTDd2_F145I-mediated PPQ uptake at 500 µM PPQ [3]: 124.15 pmol oocyte-1 h-1 and 149.83 pmol oocyte-1 h-1 and 96.18 pmol oocyte-1 h-1
Km (Michaelis-Menten fit, 10-500 μM drug, 60 min, pH 6, read-out: KM, Michaelis constant): 115 ± 7 µM
increase of Vmax by the F145I substitution (versus PfCRT^Dd2): 14%
